The record followed here is patent US8420679B2, “Aminothiazole derivatives and their use as CRF receptor ligands” (Sanofi, priority 1999, dated 2013).

Counter-ions that a name gives are not always drawn.

The melting point is the temperature, or range, at which the solid turns liquid. For `C=CCN(c1nc(-c2ccc(OC)cc2Cl)c(C)s1)C(COC)c1ccccc1` (centres unmarked) (as salt: hydrochloride) (hydrate or solvate) [Example 23, Allyl-[4-(2-chloro-4-methoxyphenyl)-5-methylthiazol-2-yl]-(2-methoxy-1-phenylethyl)amine], the melting point was found to be 70 °C.
Turning to `CC#CCN(c1nc(-c2ccc(OC)cc2Cl)c(C)s1)C(COC)c1ccccc1` (centres unmarked) (as salt: hydrochloride) (hydrate or solvate) [Example 24, But-2-ynyl-[4-(2-chloro-4-methoxyphenyl)-5-methylthiazol-2-yl]-[2-methoxy-1-phenylethyl]amine], the melting point worked out at 70 °C.
